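Briefly, cells in 96-well plates were exposed to five compound concentrations for 48 h, and endpoints were estimated by linear interpolation. At the GI50, growth is halved.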 Activity calls are given as the source filed them. Cut-off read from the data, not from the text of the source: active = GI50 up to about 1.1 µM and inactive = higher. Square brackets hold non-standard residues; d marks the D form. Peptide text beside a SMILES is read from it. pGlu = O=C1CC[CH](C(=O)O)N1
Tests used:
Experiment in all cases: growth of human tumour cells (NCI), 48 h
786-0 = test system: 786-0
A549 = test system: A549
BT-549 = test system: BT-549
CAKI-1 = test system: CAKI-1
CCRF-CEM = test system: CCRF-CEM
COLO 205 = test system: COLO 205
HCT-116 = test system: HCT-116
HOP-92 = test system: HOP-92
KM12 = test system: KM12
M14 = test system: M14
MDA-MB-435 = test system: MDA-MB-435
MDA-N = test system: MDA-N
OVCAR-3 = test system: OVCAR-3
SK-MEL-5 = test system: SK-MEL-5
SR = test system: SR
SW-620 = test system: SW-620
UACC-257 = test system: UACC-257
UACC-62 = test system: UACC-62
IGROV-1 = test system: IGROV-1
OVCAR-4 = test system: OVCAR-4

SMILES	GI50 (786-0)	GI50 (A549)	GI50 (BT-549)	GI50 (CAKI-1)	GI50 (CCRF-CEM)	GI50 (COLO 205)	GI50 (HCT-116)	GI50 (HOP-92)	GI50 (KM12)	GI50 (M14)	GI50 (MDA-MB-435)	GI50 (MDA-N)	GI50 (OVCAR-3)	GI50 (SK-MEL-5)	GI50 (SR)	GI50 (SW-620)	GI50 (UACC-257)	GI50 (UACC-62)	GI50 (IGROV-1)	GI50 (OVCAR-4)
COc1ccc(NC(=S)C#N)cc1	> 100 µM (inactive)	> 100 µM (inactive)	> 100 µM (inactive)	> 100 µM (inactive)	54.1 µM (inactive)	> 100 µM (inactive)	> 100 µM (inactive)	97.3 µM (inactive)	> 100 µM (inactive)	> 100 µM (inactive)	> 100 µM (inactive)	> 100 µM (inactive)	> 100 µM (inactive)	> 100 µM (inactive)	> 100 µM (inactive)	> 100 µM (inactive)	> 100 µM (inactive)	> 100 µM (inactive)		
Cc1n[nH]c(=O)n1/N=C\c1ccccc1	> 100 µM (inactive)	> 100 µM (inactive)	> 100 µM (inactive)	> 100 µM (inactive)	> 100 µM (inactive)	> 100 µM (inactive)	> 100 µM (inactive)		> 100 µM (inactive)		> 100 µM (inactive)	> 100 µM (inactive)	> 100 µM (inactive)	> 100 µM (inactive)	> 100 µM (inactive)	> 100 µM (inactive)	> 100 µM (inactive)	> 100 µM (inactive)	> 100 µM (inactive)	> 100 µM (inactive)
CC(=O)NC1(C)CCC(C(C)(C)NC(C)=O)CC1 (stereo unspecified)	> 100 µM (inactive)	> 100 µM (inactive)	> 100 µM (inactive)	> 100 µM (inactive)	> 100 µM (inactive)	> 100 µM (inactive)	> 100 µM (inactive)		> 100 µM (inactive)	> 100 µM (inactive)	> 100 µM (inactive)	> 100 µM (inactive)	> 100 µM (inactive)	> 100 µM (inactive)	> 100 µM (inactive)	> 100 µM (inactive)	> 100 µM (inactive)	> 100 µM (inactive)	> 100 µM (inactive)	> 100 µM (inactive)
Brc1ccc(-c2ccc(-c3ccc(Br)s3)s2)s1	> 100 µM (inactive)	> 100 µM (inactive)	> 100 µM (inactive)		> 100 µM (inactive)	> 100 µM (inactive)	> 100 µM (inactive)	> 100 µM (inactive)	> 100 µM (inactive)	> 100 µM (inactive)	> 100 µM (inactive)	> 100 µM (inactive)	> 100 µM (inactive)	> 100 µM (inactive)	> 100 µM (inactive)	> 100 µM (inactive)	> 100 µM (inactive)	> 100 µM (inactive)	> 100 µM (inactive)	> 100 µM (inactive)
Cc1cc2c(Br)cc(Br)c(O)c2nc1C(=O)c1ccccc1	10.2 µM (inactive)	14.4 µM (inactive)	> 100 µM (inactive)	55.8 µM (inactive)	8.11 µM (inactive)	21.4 µM (inactive)	12.4 µM (inactive)		22.3 µM (inactive)	> 43.3 µM (inactive)	43.1 µM (inactive)	16.2 µM (inactive)	20.3 µM (inactive)	14.5 µM (inactive)	14.9 µM (inactive)	55.8 µM (inactive)	24.5 µM (inactive)	9.59 µM (inactive)	21 µM (inactive)	29.3 µM (inactive)
CC(=O)/N=C1\NC(=O)/C(=C/c2ccc(Cl)cc2Cl)N1C	56.4 µM (inactive)	> 100 µM (inactive)	87.7 µM (inactive)	> 100 µM (inactive)	3.44 µM (inactive)	> 100 µM (inactive)	30.8 µM (inactive)	83.8 µM (inactive)	> 100 µM (inactive)	95.3 µM (inactive)	97.5 µM (inactive)	> 100 µM (inactive)	96.4 µM (inactive)	35.7 µM (inactive)		80.9 µM (inactive)	> 100 µM (inactive)	9.04 µM (inactive)	32.6 µM (inactive)	55.1 µM (inactive)
COC(=O)[C@@H](NC(=O)N(Cc1ccccc1)C[C@H](CC(C)C)NC(=O)[C@@H](NC(=O)OC(C)(C)C)C(C)C)C(C)C	> 100 µM (inactive)	> 100 µM (inactive)	> 100 µM (inactive)	> 100 µM (inactive)		> 100 µM (inactive)	> 100 µM (inactive)	> 100 µM (inactive)	> 100 µM (inactive)	> 100 µM (inactive)	> 100 µM (inactive)	> 100 µM (inactive)	> 100 µM (inactive)	> 100 µM (inactive)	> 100 µM (inactive)	> 100 µM (inactive)	> 100 µM (inactive)	> 100 µM (inactive)		> 100 µM (inactive)
COP(=O)(OC)C(Nc1ccc(Cc2ccc(NC(c3ccco3)P(=O)(OC)OC)cc2)cc1)c1ccco1 (stereo unspecified)	13.8 µM (inactive)	> 100 µM (inactive)	17.3 µM (inactive)	26.3 µM (inactive)	> 100 µM (inactive)	> 100 µM (inactive)	35.9 µM (inactive)	6.47 µM (inactive)	> 100 µM (inactive)	38.1 µM (inactive)	> 100 µM (inactive)	> 100 µM (inactive)	85.1 µM (inactive)	> 100 µM (inactive)		> 100 µM (inactive)	> 100 µM (inactive)	17 µM (inactive)	31.4 µM (inactive)	> 100 µM (inactive)
O=C1C(Br)=C(Br)C(=O)c2c(O)ccc(O)c21	1.56 µM (inactive)	19.3 µM (inactive)	13.9 µM (inactive)		0.189 µM (active)	1.09 µM (active)	3.56 µM (inactive)	2.11 µM (inactive)	11.4 µM (inactive)	1.85 µM (inactive)	3.07 µM (inactive)	2.49 µM (inactive)	5.85 µM (inactive)	9.14 µM (inactive)	0.0352 µM (active)	1.33 µM (inactive)	5.43 µM (inactive)	11.2 µM (inactive)	14.7 µM (inactive)	3.6 µM (inactive)
CO/C(N)=C(C#N)/N=C/c1cccnc1	> 100 µM (inactive)	> 100 µM (inactive)	> 100 µM (inactive)	71.9 µM (inactive)	35.8 µM (inactive)	> 100 µM (inactive)	> 100 µM (inactive)	> 100 µM (inactive)	> 100 µM (inactive)	> 100 µM (inactive)	> 100 µM (inactive)	> 100 µM (inactive)	> 100 µM (inactive)	> 100 µM (inactive)		> 100 µM (inactive)	> 100 µM (inactive)	> 100 µM (inactive)	> 100 µM (inactive)	> 100 µM (inactive)
NCC(=O)NC(CO)C(=O)O (stereo unspecified)	> 100 µM (inactive)	> 100 µM (inactive)	> 100 µM (inactive)	> 100 µM (inactive)	> 100 µM (inactive)	> 100 µM (inactive)	> 100 µM (inactive)	> 100 µM (inactive)	> 100 µM (inactive)	> 100 µM (inactive)	> 100 µM (inactive)	> 100 µM (inactive)	> 100 µM (inactive)	> 100 µM (inactive)		> 100 µM (inactive)	> 100 µM (inactive)	> 100 µM (inactive)	> 100 µM (inactive)	> 100 µM (inactive)
COc1ccc(N(C(=O)OC(C)(C)C)[C@@H]2C(C)=C[C@H]([S@@+]([O-])c3ccc(C)cc3)[C@@H]3C(=O)N(C)C(=O)[C@@H]32)cc1	18.1 µM (inactive)	19.3 µM (inactive)	13.6 µM (inactive)	25.3 µM (inactive)	5.48 µM (inactive)	17 µM (inactive)	18.6 µM (inactive)	17.7 µM (inactive)	11.6 µM (inactive)	32.2 µM (inactive)	15 µM (inactive)	18.3 µM (inactive)	27.1 µM (inactive)	16.6 µM (inactive)		20.9 µM (inactive)	17.5 µM (inactive)	18.4 µM (inactive)	10.7 µM (inactive)	16.5 µM (inactive)
CN(C)Cc1cc(C(=O)/C=C/c2cccc(Cl)c2)cc(CN(C)C)c1O	3.29 µM (inactive)	11.8 µM (inactive)	9.64 µM (inactive)	1.68 µM (inactive)	2.07 µM (inactive)	1.77 µM (inactive)	3.21 µM (inactive)	4.31 µM (inactive)	4.97 µM (inactive)	3.37 µM (inactive)	3.48 µM (inactive)	3.1 µM (inactive)	2.67 µM (inactive)	2.41 µM (inactive)	2.28 µM (inactive)	4.41 µM (inactive)	5.56 µM (inactive)	6.56 µM (inactive)	3.27 µM (inactive)	
CC(NC(=O)C(Cc1c[nH]cn1)NC(=O)C1CCC(=O)N1)C(N)=O (stereo not drawn) ([pGlu]-His-Ala-NH2; configuration not given here)	> 100 µM (inactive)	> 100 µM (inactive)	> 100 µM (inactive)		> 100 µM (inactive)	> 100 µM (inactive)	> 100 µM (inactive)	> 100 µM (inactive)	> 100 µM (inactive)	> 100 µM (inactive)	> 100 µM (inactive)	> 100 µM (inactive)	> 100 µM (inactive)	> 100 µM (inactive)	> 100 µM (inactive)	> 100 µM (inactive)		> 100 µM (inactive)	> 100 µM (inactive)	

— ChEMBL document CHEMBL1201862, “PubChem BioAssay data set” (2004)
